Reference: patent US20240390338A1, “METHODS FOR TREATING NEUROGENERATIVE DISEASES” (PTC THERAPEUTICS, INC., priority 2021, published 2024)

Each compound was assayed on MAPT 3R mRNA (assay: RT-qPCR Assay to Quantify MAPT 3R mRNA in Cells). Settings: cells incubated with compound 24 h; 7-point concentration curve; MAPT minigene 3R RT-qPCR with GAPDH assay; EC2X interpolated from dose response curve.
Assay type: cell-based
Experimental: RT-qPCR Assay to Quantify MAPT 3R mRNA in Cells
Test compounds were serially diluted 3.16-fold in 100% DMSO to generate a 7-point concentration curve. Aliquots of 0.5 μL of diluted compounds were transferred to a 96-well flat bottom plate by a liquid handler. An aliquot of 0.5 μL DMSO was also transferred to separate wells and used as controls. Duplicate samples were set up for each compound concentration and for the DMSO control.
Cells were thawed and incubated in cell culture media (DMEM, 10% FBS, and 1% antibiotic cocktail) for 72 h. Cells were trypsinized, counted, and re-suspended to a concentration of 200,000 cells/mL in cell culture media. A 100 μL aliquot of the cell suspensions were plated at 20,000 cells per well in the compound containing 96 well microtiter plate and incubated for in a cell culture incubator (37° C., 5% CO2, 100% relative humidity).
After 24 h, media was aspirated from the cells and 20 μL of the RCL2 lysis buffer (10 mM Tris-HCL pH 7.4, 150 mM NaCl, 0.33% IGEPAL® CA-630) was added to each well and incubated at RT for 1 min. Chilled nuclease free water (140 μL per well) was added and the plates were immediately transferred on ice. After 1 min on ice, plates were frozen at −80° C. overnight.
Preparation of RT-qPCR Reaction Mixture:
An aliquot of 4 μL/well of the cell lysates was transferred using the liquid handler to the Armadillo 384-Well PCR plate containing 6 μL/well of the RT-qPCR reaction mixture that was prepared as detailed above. The plates were then sealed with MicroAmp™ Optical Adhesive Film followed by spinning down for 1 min and placed in the CFX384 thermocycler (BioRad).
The RT-qPCR was carried out at the following temperatures for the indicated time: • Step 1: 48° C. (30 min) • Step 2: 95° C. (10 min) • Step 3: 95° C. (15 sec) • Step 4: 60° C. (1 min); then, repeated Steps 3 and 4 for a total of 40 cycles.
The percent exon 4 skipping was calculated for each dose of compound treatment using Equations 1 and 2.
Data were fit to a dose response curve and the EC2X was interpolated using XLfit® statistical and curve fitting package.
An EC2X value between >1000 nM and ≤1500 nM is indicated by two stars (**). An EC2X value between >500 nM and ≤1000 nM is indicated by three stars (***). An EC2X value between >50 nM and ≤500 nM is indicated by four stars (****). An EC2X value ≤50 nM is indicated by five stars (*****).

Compound | EC (2-fold increase)
Cc1c(C[C@@H](N)[C@H](C)F)sc2c(NCc3nccs3)cc(Cl)nc12 [Cpd 128, 2-[(2R,3S)-2-amino-3-fluorobutyl]-5-chloro-3-methyl-N-[(1,3-thiazol-2-yl)methyl]thieno[3,2-b]pyridin-7-amine] | ≤ 0.05 µM
Cc1c(C[C@@H](N)CC#N)sc2c(NCc3cccs3)cc(Cl)nc12 [Cpd 105, (3S)-3-amino-4-(5-chloro-3-methyl-7-{[(thiophen-2-yl)methyl]amino}thieno[3,2-b]pyridin-2-yl)butanenitrile] | 0.05 to 0.5 µM
C[C@H](N)C(F)(F)c1sc2c(NCc3cccs3)cc(Cl)nc2c1Cl [Cpd 132, 2-[(2S)-2-amino-1,1-difluoropropyl]-3,5-dichloro-N-[(thiophen-2-yl)methyl]thieno[3,2-b]pyridin-7-amine] | 0.05 to 0.5 µM
N[C@@H](CCF)Cc1sc2c(NCc3ccco3)cc(Cl)nc2c1Cl [Cpd 93, 2-[(2S)-2-amino-4-fluorobutyl]-3,5-dichloro-N-[(furan-2-yl)methyl]thieno[3,2-b]pyridin-7-amine] | 0.05 to 0.5 µM
Cc1c(C[C@@H](N)CO)sc2c(NCc3ccco3)cc(Cl)nc12 [Cpd 58, (2R)-2-amino-3-(5-chloro-7-{[(furan-2-yl)methyl]amino}-3-methylthieno[3,2-b]pyridin-2-yl)propan-1-ol] | ≤ 0.05 µM
Cc1c(C[C@@H](N)[C@H](C)F)sc2c(NCc3cccs3)cc(Cl)nc12 [Cpd 126, 2-[(2R,3S)-2-amino-3-fluorobutyl]-5-chloro-3-methyl-N-[(thiophen-2-yl)methyl]thieno[3,2-b]pyridin-7-amine] | ≤ 0.05 µM
N[C@@H](CCF)Cc1sc2c(NCc3ccco3)cc(Cl)nc2c1Br [Cpd 97, 2-[(2S)-2-amino-4-fluorobutyl]-3-bromo-5-chloro-N-[(furan-2-yl)methyl]thieno[3,2-b]pyridin-7-amine] | ≤ 0.05 µM
CC[C@H](N)Cc1sc2c(NCc3cccs3)cc(Cl)nc2c1Br [Cpd 73, 2-[(2S)-2-aminobutyl]-3-bromo-5-chloro-N-[(thiophen-2-yl)methyl]thieno[3,2-b]pyridin-7-amine] | ≤ 0.05 µM
C[C@H](N)Cc1sc2c(NCc3ccco3)cc(Cl)nc2c1Cl [Cpd 36, 2-[(2S)-2-aminopropyl]-3,5-dichloro-N-[(furan-2-yl)methyl]thieno[3,2-b]pyridin-7-amine] | ≤ 0.05 µM
C#C[C@H](N)Cc1sc2c(NCc3ccco3)cc(Cl)nc2c1C [Cpd 123, 2-[(2R)-2-aminobut-3-yn-1-yl]-3-methyl-5-chloro-N-[(furan-2-yl)methyl]thieno[3,2-b]pyridin-7-amine] | ≤ 0.05 µM
Cc1c(C[C@@H](N)CC(C)C)sc2c(NCc3cccs3)cc(Cl)nc12 [Cpd 61, 2-[(2S)-2-amino-4-methylpentyl]-5-chloro-3-methyl-N-[(thiophen-2-yl)methyl]thieno[3,2-b]pyridin-7-amine] | ≤ 0.05 µM
